From paper PMC9410764, “EmCyclinD-EmCDK4/6 complex is involved in the host EGF-mediated proliferation of Echinococcus multilocularis germinative cells via the EGFR-ERK pathway” (Frontiers in Microbiology, 2022)

Biological target: T1, EmCyclinD-EmCDK4/6 complex (Echinococcus multilocularis, UniProt A0A068YJR9)
T1 construct: gene EmuJ_001021000
T1 sequence (A0A068YJR9 1-711): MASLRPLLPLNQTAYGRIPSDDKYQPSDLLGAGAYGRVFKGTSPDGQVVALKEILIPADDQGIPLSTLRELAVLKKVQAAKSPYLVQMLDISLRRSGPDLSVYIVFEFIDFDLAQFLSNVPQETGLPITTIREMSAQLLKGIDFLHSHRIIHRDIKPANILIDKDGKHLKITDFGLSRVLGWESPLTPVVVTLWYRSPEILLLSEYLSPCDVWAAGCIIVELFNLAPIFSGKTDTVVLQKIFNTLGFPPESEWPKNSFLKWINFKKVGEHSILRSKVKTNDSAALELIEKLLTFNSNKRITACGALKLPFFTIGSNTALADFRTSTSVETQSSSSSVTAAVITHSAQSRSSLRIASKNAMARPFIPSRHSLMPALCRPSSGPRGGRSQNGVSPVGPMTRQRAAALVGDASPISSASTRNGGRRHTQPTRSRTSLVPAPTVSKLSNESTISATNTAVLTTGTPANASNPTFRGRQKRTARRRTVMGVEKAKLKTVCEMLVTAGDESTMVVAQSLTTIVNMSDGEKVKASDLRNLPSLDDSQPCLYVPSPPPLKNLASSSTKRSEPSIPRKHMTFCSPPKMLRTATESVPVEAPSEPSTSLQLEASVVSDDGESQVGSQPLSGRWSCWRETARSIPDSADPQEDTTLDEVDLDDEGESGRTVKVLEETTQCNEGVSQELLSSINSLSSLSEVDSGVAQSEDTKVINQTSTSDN
T1 sequence (A0A068Y4X2 1-386 partner): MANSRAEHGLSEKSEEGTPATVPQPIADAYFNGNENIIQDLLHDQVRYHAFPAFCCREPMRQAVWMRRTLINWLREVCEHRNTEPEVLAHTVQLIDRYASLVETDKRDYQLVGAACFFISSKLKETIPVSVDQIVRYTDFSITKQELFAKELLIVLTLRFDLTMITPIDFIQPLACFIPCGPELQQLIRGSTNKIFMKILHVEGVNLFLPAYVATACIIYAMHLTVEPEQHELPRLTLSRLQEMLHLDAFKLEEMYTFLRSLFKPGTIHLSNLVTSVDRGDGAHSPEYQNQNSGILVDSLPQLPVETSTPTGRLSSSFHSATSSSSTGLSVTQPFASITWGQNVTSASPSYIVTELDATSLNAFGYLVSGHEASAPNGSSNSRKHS
Details: human Rb1 substrate (3 ug); 25 uM ATP, 20 mM MgCl2, 1 mM DTT, pH 7.5, RT, 20 min

With Nc1ncnc2c1ncn2[C@@H]1O[C@H](COP(=O)(O)OP(=O)(O)OP(=O)(O)O)[C@@H](O)[C@H]1O [ATP] the kinase activity was “the EmCDK4/6-EmCyclinD complex displayed kinase activity against human Rb1”.
